This assay has as its system mutant Huntington (HTT) protein. As to the kind of experiment: HTT Mutant HTRF iPSC assay (mHTT protein lowering). The conditions noted are these: human iPSC derived from a HTT patient with a poly-Q49 mutation. Type of assay: cell-based. For orientation: TR-FRET usually uses a lanthanide donor and a delayed reading to cut background.

Molecules are shown by their SMILES.

By IC50 is commonly meant the concentration that gives 50% inhibition.

As for `Cc1cn2nc(-c3cc(F)c4nc(C5CCN(CC(F)F)CC5)cn4c3)cc(C)c2n1` [Compound 174, 6-(2-(1-(2,2-difluoroethyl)piperidin-4-yl)-8-fluoroimidazo[1,2-a]pyridin-6-yl)-2,8-dimethylimidazo[1,2-b]pyridazine], the IC50 lay within 100 to 1000 nM.

In the case of `CCc1nc(C)cn2cc(-c3cc(F)c4nc(C5CCN(CC)CC5)cn4c3)cc12` [Compound 175, 6-(1-ethyl-3-methylpyrrolo[1,2-a]pyrazin-7-yl)-2-(1-ethylpiperidin-4-yl)-8-fluoroimidazo[1,2-a]pyridine], the 50% inhibitory concentration (IC50) is 100 to 1000 nM.

Compound `Cc1cn2nc(-c3cc(F)c4nc([C@H]5C[C@H](CN(C)C)C5)cn4c3)cc(C)c2n1` [Compound 181, 1-((1r,3r)-3-(6-(2,8-dimethylimidazo[1,2-b]pyridazin-6-yl)-8-fluoroimidazo[1,2-a]pyridin-2-yl)cyclobutyl)-N,N-dimethylmethanamine] came in with an IC50 of less than 100 nM.

`Cc1cn2nc(-c3cc(F)c4nc([C@H]5C[C@@H](CN(C)C)C5)cn4c3)cc(C)c2n1` [Compound 182, 1-((1s,3s)-3-(6-(2,8-dimethylimidazo[1,2-b]pyridazin-6-yl)-8-fluoroimidazo[1,2-a]pyridin-2-yl)cyclobutyl)-N,N-dimethylmethanamine] gave an IC50 of less than 100 nM.

Turning to `Cc1cn2nc(-c3cc(F)c4nc(C5C6CCC5CNC6)cn4c3)cc(C)c2n1` (stereo not drawn) [Compound 183, 6-(2-(3-azabicyclo[3.2.1]]octan-8-yl)-8-fluoroimidazo[1,2-a]pyridin-6-yl)-2,8-dimethylimidazo[1,2-blpyridazine], the IC50 lay within 100 to 1000 nM.

For the compound `Cc1cn2nc(-c3cc(F)c4nc(C56CC(C7CNC7)(C5)C6)cn4c3)cc(C)c2n1` [Compound 184], the IC50 is 100 to 1000 nM.

As for `Cc1cn2nc(-c3cc(F)c4nc([C@H]5[C@@H]6CN(C)C[C@@H]65)cn4c3)cc(C)c2n1` [Compound 185, 6-[8-fluoro-2-[(1S,5R)-3-methyl-3-azabicyclo[3.1.0]hexan-6-yl]imidazo[1,2-a]pyridin-6-yl]-2,8-dimethyl-imidazo[1,2-b]pyridazine], the IC50 was less than 100 nM.

Regarding `COCCN1C[C@@H]2[C@H](C1)[C@H]2c1cn2cc(-c3cc(C)c4nc(C)cn4n3)cc(F)c2n1` [Compound 187, 6-(8-fluoro-2-((1R,5S,6r)-3-(2-methoxyethyl)-3-azabicyclo[3.1.0]hexan-6-yl)imidazo[1,2-a]pyridin-6-yl)-2,8-dimethylimidazo[1,2-b]pyridazine], the IC50 is less than 100 nM.

In turn, `CCN1C[C@@H]2[C@H](C1)[C@H]2c1cn2cc(-c3cc(C)c4nc(C)cn4n3)cc(F)c2n1` [Compound 188, 6-(2-((1R,5S,6r)-3-ethyl-3-azabicyclo[3.1.0]hexan-6-yl)-8-fluoroimidazo[1,2-a]pyridin-6-yl)-2,8-dimethylimidazo[1,2-b]pyridazine] yielded an IC50 of 100 to 1000 nM.

In the case of `Cc1cn2nc(-c3cc(F)c4nc([C@H]5C[C@]6(CCNC6)C5)cn4c3)cc(C)c2n1` [Compound 191, 6-(8-fluoro-2-((2s,4s)-6-azaspiro[3.4]octan-2-yl)imidazo[1,2-a]pyridin-6-yl)-2,8-dimethylimidazo[1,2-b]pyridazine], the IC50 was less than 100 nM.

Compound `Cc1cn2nc(-c3cc(F)c4nc(C5CCN(C6CCOC6)CC5)cn4c3)cc(C)c2n1` (stereo not drawn) [Compound 192, 6-(8-fluoro-2-(1-(tetrahydrofuran-3-yl)piperidin-4-yl)imidazo[1,2-a]pyridin-6-yl)-2,8-dimethylimidazo[1,2-b]pyridazine] registered an IC50 of less than 100 nM.

Compound `Cc1cn2nc(-c3cc(F)c4nc([C@H]5C[C@@]6(CCNC6)C5)cn4c3)cc(C)c2n1` [Compound 193, 6-(8-fluoro-2-((2r,4r)-6-azaspiro[3.4]octan-2-yl)imidazo[1,2-a]pyridin-6-yl)-2,8-dimethylimidazo[1,2-b]pyridazine] had an IC50 of less than 100 nM.

Regarding `Cc1cn2nc(-c3cc(F)c4nc(C5CCNCC5)cn4c3)cc(C3CC3)c2n1` [Compound 194, 8-cyclopropyl-6-(8-fluoro-2-(piperidin-4-yl)imidazo[1,2-a]pyridin-6-yl)-2-methylimidazo[1,2-b]pyridazine], the IC50 was less than 100 nM.

Compound `Cc1cn2nc(-c3cc(F)c4nc(C5CCNCC5)cn4c3)cc2c(C)n1` [Compound 195, 2-(8-fluoro-2-(piperidin-4-yl)imidazo[1,2-a]pyridin-6-yl)-4,6-dimethylpyrazolo[1,5-a]pyrazine] yielded an IC50 of less than 100 nM.

In turn, `Cc1cn2nc(-c3cc(F)c4nc(C5CC=CC5)cn4c3)cc(C)c2n1` [Compound 196, 6-(2-cyclopent-3-en-1-yl-8-fluoro-imidazo[1,2-a]pyridin-6-yl)-2,8-dimethyl-imidazo[1,2-b]pyridazine] returned an IC50 of 100 to 1000 nM.

In turn, `CCc1cc(-c2cc(F)c3nc(C4CCNCC4)cn3c2)nn2cc(C)nc12` [Compound 197, 8-ethyl-6-(8-fluoro-2-(piperidin-4-yl)imidazo[1,2-a]pyridin-6-yl)-2-methylimidazo[1,2-b]pyridazine] registered an IC50 of less than 100 nM.

Compound `Fc1cc(-c2ncc3cccn3n2)cn2cc(C3CCNCC3)nc12` [Compound 198, 2-(8-fluoro-2-(piperidin-4-yl)imidazo[1,2-a]pyridin-6-yl)pyrrolo[2,1-f][1,2,4]triazine] yielded an IC50 of 100 to 1000 nM.

`Fc1cc(-c2ccn3nc(Br)cc3n2)cn2cc(C3CCNCC3)nc12` [Compound 199, 2-bromo-5-(8-fluoro-2-(piperidin-4-yl)imidazo[1,2-a]pyridin-6-yl)pyrazolo[1,5-a]pyrimidine] displayed an IC50 of 100 to 1000 nM.

In turn, `Cc1cc2nc(-c3cc(F)c4nc(C5CCNCC5)cn4c3)ccn2n1` [Compound 200, 5-(8-fluoro-2-(piperidin-4-yl)imidazo[1,2-a]pyridin-6-yl)-2-methylpyrazolo[1,5-a]pyrimidine] returned an IC50 of less than 100 nM.

In the case of `Cc1cc2nc(-c3cc(F)c4nc(C5CCNCC5)cn4c3)ncc2s1` [Compound 201, 2-(8-fluoro-2-(piperidin-4-yl)imidazo[1,2-a]pyridin-6-yl)-6-methylthieno[3,2-d]pyrimidine], the IC50 lay within 100 to 1000 nM.

`Cc1cn2nc(-c3cc(F)c4nc([C@H]5C[C@@]6(CCN(C)C6)C5)cn4c3)cc(C)c2n1` [Compound 202, 6-(8-fluoro-2-((2r,4r)-6-methyl-6-azaspiro[3.4]octan-2-yl)imidazo[1,2-a]pyridin-6-yl)-2,8-dimethylimidazo[1,2-b]pyridazine] had an IC50 of less than 100 nM.

For `Cc1cn2nc(-c3cc(F)c4nc([C@H]5C[C@]6(CCN(C)C6)C5)cn4c3)cc(C)c2n1` [Compound 203, 6-(8-fluoro-2-((2s,4s)-6-methyl-6-azaspiro[3.4]octan-2-yl)imidazo[1,2-a]pyridin-6-yl)-2,8-dimethylimidazo[1,2-b]pyridazine], the IC50 was less than 100 nM.

As to `Cc1cn2nc(-c3cc(F)c4nc([C@H]5[C@@H]6CN(C7CC7)C[C@@H]65)cn4c3)cc(C)c2n1` [Compound 204, 6-(2-((1R,5S,6r)-3-cyclopropyl-3-azabicyclo[3.1.0]hexan-6-yl)-8-fluoroimidazo[1,2-a]pyridin-6-yl)-2,8-dimethylimidazo[1,2-b]pyridazine], the IC50 fell in the range of 100 to 1000 nM.

In turn, `COC1CC1N1CCC(c2cn3cc(-c4cc(C)c5nc(C)cn5n4)cc(F)c3n2)CC1` (stereo not drawn) [Compound 205, 6-(8-fluoro-2-(1-(2-methoxycyclopropyl)piperidin-4-yl)imidazo[1,2-a]pyridin-6-yl)-2,8-dimethylimidazo[1,2-b]pyridazine] displayed an IC50 of 100 to 1000 nM.

Compound `Cc1cn2nc(-c3cc(F)c4nc(C5CC6CCC(C5)N6)cn4c3)cc(C)c2n1` (stereo not drawn) [Compound 206] showed an IC50 of less than 100 nM.

For `[2H]C1(N2CCC(c3cn4cc(-c5cc(C)c6nc(C)cn6n5)cc(F)c4n3)CC2)CC1` [Compound 207, 6-(2-(1-(cyclopropyl-1-d)piperidin-4-yl)-8-fluoroimidazo[1,2-a]pyridin-6-yl)-2,8-dimethylimidazo[1,2-b]pyridazine], the IC50 is less than 100 nM.

The compound `Cc1cn2nc(-c3cc(F)c4nc(C56CC(N(C)C7CC7)(C5)C6)cn4c3)cc(C)c2n1` [Compound 208, N-cyclopropyl-3-(6-(2,8-dimethylimidazo[1,2-b]pyridazin-6-yl)-8-fluoroimidazo[1,2-a]pyridin-2-yl)-N-methylbicyclo[1.1.1] pentan-1-amine] yielded an IC50 of 100 to 1000 nM.

Take `Cc1cn2nc(-c3cc(F)c4nc(C5CCN(C6COC6(C)C)CC5)cn4c3)cc(C)c2n1` (stereo not drawn) [Compound 210, 6-(2-(1-(2,2-dimethyloxetan-3-yl)piperidin-4-yl)-8-fluoroimidazo[1,2-a]pyridin-6-yl)-2,8-dimethylimidazo[1,2-b]pyridazine]: the IC50 was in the range of 100 to 1000 nM.

`Cc1cn2nc(-c3cc(F)c4nc([C@H]5[C@@H]6CN(C7CCC7)C[C@@H]65)cn4c3)cc(C)c2n1` [Compound 211, 6-(2-((1R,5S,6r)-3-cyclobutyl-3-azabicyclo[3.1.0]hexan-6-yl)-8-fluoroimidazo[1,2-a]pyridin-6-yl)-2,8-dimethylimidazo[1,2-b]pyridazine]: the IC50 was less than 100 nM.

Regarding `Cc1cn2nc(-c3cc(F)c4nc([C@H]5[C@@H]6CN(CC7CC7)C[C@@H]65)cn4c3)cc(C)c2n1` [Compound 212, 6-(2-((1R,5S,6r)-3-(cyclopropylmethyl)-3-azabicyclo[3.1.0]hexan-6-yl)-8-fluoroimidazo[1,2-a]pyridin-6-yl)-2,8-dimethylimidazo[1,2-b]pyridazine], the IC50 is less than 100 nM.

Take `Cc1cn2nc(-c3cc(F)c4nc(C5CCN(C6COC6C)CC5)cn4c3)cc(C)c2n1` (stereo not drawn) [Compound 213, 6-(8-fluoro-2-(1-(2-methyloxetan-3-yl)piperidin-4-yl)imidazo[1,2-a]pyridin-6-yl)-2,8-dimethylimidazo[1,2-b]pyridazine]: the IC50 is 100 to 1000 nM.

`Cc1cn2nc(-c3cc(F)c4nc([C@H]5C[C@@H](C)N[C@@H](C)C5)cn4c3)cc(C)c2n1` [Compound 215, 6-(2-((2S,4r,6R)-2,6-dimethylpiperidin-4-yl)-8-fluoroimidazo[1,2-a]pyridin-6-yl)-2,8-dimethylimidazo[1,2-b]pyridazine] had an IC50 of less than 100 nM.

`Cc1cn2nc(-c3cc(F)c4nc([C@H]5[C@@H]6CN(CCF)C[C@@H]65)cn4c3)cc(C)c2n1` [Compound 216, 6-(8-fluoro-2-((1R,5S,6r)-3-(2-fluoroethyl)-3-azabicyclo[3.1.0]hexan-6-yl)imidazo[1,2-a]pyridin-6-yl)-2,8-dimethylimidazo[1,2-b]pyridazine] had an IC50 of 100 to 1000 nM.

For the origin of these results see US20250353841A1 (BIOGEN MA INC., priority 2022, published 2025).
